Values quoted from earlier work, collected in patent publication US9839606B2, “Formulation for treatment of hairs” (OSMA Cosmetics & Laboratories AG, priority 2013, dated 2017).

Key:
[1] = test system: hair follicles
[2] = test system: human dermal papilla cells (DPCs)

**Q.** Which results are given for epigallocatechin-3-gallate [EGCG]?
**A.** hair growth in hair follicles ex vivo culture [1]: promoted hair growth; proliferation of cultured DPCs [2]: promoted
